Marks after values point to notes of the source that are not given here.
Columns and labels:
[1] = Iron (III) binding affinity, EDTA or citrate competition assay; conditions: for KA for iron (III): EDTA competition (citrate for maltol), pH 7.0
Experimental: Specifically, the association constant for iron (II) was determined by a ferrozine competition assay (KA of ferrozine=3.65×10^15) (60). FeCl2 (25 μM) was pre-mixed with ferrozine (75 μM) in a 25 mM MES/Tris buffer at pH=7.0 containing 62.5 mM sodium ascorbate. Then increasing concentrations of small molecule (from 40X stocks in DMSO) were added to the indicated final concentrations. The solutions were allowed to equilibrate for 24 hours before reading of the absorbance at 562 nm. […] The system was allowed to equilibrate overnight, and the absorbance corresponding to the Fe(chelator)3 complex was determined. The EC50 values for each chelator were calculated by a nonlinear curve fit (Hill1) on OriginPro by plotting the absorbance vs. concentration of titrant, and the KA for each complex was determined from the equation: KA, ligand=(KA, competitor*[EC50])/[ligand] where the ligand is the molecule originally bound to iron, and the competitor is the competing chelator.

[2] = WST-8 toxicity in MEL cells; format: cell-based, mouse; conditions: mouse, wild type MEL cells; Wild Type MEL, WST-8 assay after ≥24 hours of incubation
Experimental: Determination of small molecule-mediated toxicity in Caco-2, MEL, and/or J774 cells was performed according to manufacturer instructions using a WST-8 kit (Cayman Chemical 10010199) similar to previously reported (76) using a 1000× stock of the indicated small molecule in DMSO to give the indicated final concentration.

[3] = tested on: TMEM14CΔ MEL cells; test: Hemoglobinization of TMEM14C-deficient MEL cells; format: cell-based, mouse; conditions: 1 μM
Experimental: Cells were then incubated at 37° C. for 72 hours unless otherwise noted. […] Hemoglobinized MEL cells were quantified three days after DMSO induction through o-dianisidine staining similar to previously reported (74). Cells were centrifuged three days after induction and rinsed with PBS. […] Cells were then imaged on an AXIO Zoom […] microscope to obtain color images. The number of stained cells were then quantified via ImageJ analysis and compared to the number of total cells in each image. To determine that hinokitiol requires DMSO induction for hemoglobinization, 2% DMSO was not added at the beginning of the experiment before a 72-hour incubation and o-dianisidine staining.

[4] = tested on: Mfrn1-deficient zebrafish; test: Hemoglobinization in Mfrn1-deficient zebrafish; format: in vivo, Danio rerio

CC(C)c1cccc(=O)c(O)c1 [hinokitiol]
KA for iron (III) [1]: 5.8×10^25 | KA for iron (III) ([1]; listed as Hinokitiol): 5.8 × 10^25 | pFe^III ([1]; estimated from known pFe of EDTA (citrate for maltol)): 23.7^† | EC90 [2]: 24 µM | hemoglobinization [3]: did not promote hemoglobinization | hemoglobinization and GFP-positive erythrocytes ([4]; Mfrn1-deficient morphant zebrafish, forty-eight hours): restored hemoglobinization and the number of GFP-positive erythrocytes | anemic phenotype ([4]; embryos from heterozygous cross of +/frs fish): rescued the anemic phenotype
